“And” between values parts separate entries of the source, which are not always exact repeats. Equal values may be shown once. Read-outs that look alike come from different tables or passages of the source.
What was measured:
[1] = tested on: MHV
[2] = target: T1, hHgs 1-390 protein (Homo sapiens, UniProt O14964); experiment: biochemical
[3] = target: T1, hHgs 1-390 protein
[4] = tested on: 17Cl-1 cells

T1 sequence (O14964 1-390): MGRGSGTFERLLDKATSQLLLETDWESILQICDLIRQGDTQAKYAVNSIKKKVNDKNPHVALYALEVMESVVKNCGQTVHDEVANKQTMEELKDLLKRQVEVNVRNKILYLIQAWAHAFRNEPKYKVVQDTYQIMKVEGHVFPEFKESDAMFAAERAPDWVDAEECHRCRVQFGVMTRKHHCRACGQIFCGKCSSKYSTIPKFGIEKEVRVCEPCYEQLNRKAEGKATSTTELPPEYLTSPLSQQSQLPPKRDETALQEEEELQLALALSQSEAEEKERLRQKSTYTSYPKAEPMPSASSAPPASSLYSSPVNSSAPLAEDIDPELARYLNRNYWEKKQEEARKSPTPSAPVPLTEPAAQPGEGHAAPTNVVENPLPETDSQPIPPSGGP

Compound: COc1cc(OC)c2ccc(=O)oc2c1 [Citropten, citropten]
- viability of infected cells (rescue of cytopathic effect), Figures S9G-L ([1]; concentration 10): 49.655 and 47.1823 and 44.4221
- viability of infected cells (rescue of cytopathic effect), Figures S9G-L ([1]; concentration 30): 48.2749 and 46.3772 and 44.6233
- viability of infected cells (rescue of cytopathic effect), Figures S9G-L ([1]; concentration 100): 44.4221 and 42.6394 and 45.4572
- viability of infected cells (rescue of cytopathic effect), Figures S9G-L ([1]; concentration 300): 47.7573 and 43.5308 and 44.5946
- viability of infected cells (rescue of cytopathic effect), Figures S9G-L ([1]; concentration 1000): 47.3548 and 44.7384 and 49.3099
- viability of infected cells (rescue of cytopathic effect), Figures S9G-L ([1]; concentration 3000): 49.77 and 48.2461 and 50.575
- viability of infected cells (rescue of cytopathic effect), Figures S9G-L ([1]; concentration 10000): 55.1466 and 56.7568
- viability of infected cells (rescue of cytopathic effect), Figures S9G-L ([1]; concentration 25000): 67.4813 and 66.8775 and 68.0851
- IC50 [2]: 2.17 µM
- Polarization ([3]; 0.00610352 uM): 144
- Polarization ([3]; 0.0244141 uM): 145 and 146
- Polarization ([3]; 0.0976562 uM): 135 and 136
- Polarization ([3]; 0.390625 uM): 119 and 129
- Polarization ([3]; 1.5625 uM): 75 and 87
- Polarization ([3]; 6.25 uM): 26 and 35
- cell viability, Figures S9A, B, D-F ([4]; concentration 0.01): 100
- cell viability, Figures S9A, B, D-F ([4]; concentration 0.03): 100
- cell viability, Figures S9A, B, D-F ([4]; concentration 0.1): 100
- cell viability, Figures S9A, B, D-F ([4]; concentration 0.3): 100
- cell viability, Figures S9A, B, D-F ([4]; concentration 1): 100
- cell viability, Figures S9A, B, D-F ([4]; concentration 3): 100
- cell viability, Figures S9A, B, D-F ([4]; concentration 10): 100
- cell viability, Figures S9A, B, D-F ([4]; concentration 25): 100 and 98.7013 and 97.6623

Compound: CCOc1ccc2nc3cc(N)ccc3c(N)c2c1 [Ethacridine lactate, ethacridine lactate]
- viability of infected cells (rescue of cytopathic effect), Figures S9G-L ([1]; concentration 10): 29.3773 and 29.6337 and 29.1575
- viability of infected cells (rescue of cytopathic effect), Figures S9G-L ([1]; concentration 30): 34.9451 and 36.63 and 36.4103
- viability of infected cells (rescue of cytopathic effect), Figures S9G-L ([1]; concentration 100): 33.0403 and 35.0549 and 36.2271
- viability of infected cells (rescue of cytopathic effect), Figures S9G-L ([1]; concentration 300): 32.8571 and 32.6374 and 34.6886
- viability of infected cells (rescue of cytopathic effect), Figures S9G-L ([1]; concentration 1000): 32.4176 and 32.0513 and 35.0916
- viability of infected cells (rescue of cytopathic effect), Figures S9G-L ([1]; concentration 3000): 33.0037 and 32.1612 and 34.9817
- viability of infected cells (rescue of cytopathic effect), Figures S9G-L ([1]; concentration 10000): 41.7582 and 41.0256 and 40.6593
- viability of infected cells (rescue of cytopathic effect), Figures S9G-L ([1]; concentration 25000): 8.462 and 8.5348 and 8.278
- IC50 [2]: 7.14 µM
- Polarization ([3]; 0.00610352 uM): 140 and 149
- Polarization ([3]; 0.0244141 uM): 140 and 144
- Polarization ([3]; 0.0976562 uM): 143
- Polarization ([3]; 0.390625 uM): 137 and 141
- Polarization ([3]; 1.5625 uM): 134 and 136
- Polarization ([3]; 6.25 uM): 102 and 105
- Polarization ([3]; 25 uM): 73 and 70
- Polarization ([3]; 100 uM): 68 and 66
- cell viability, Figures S9A, B, D-F ([4]; concentration 0.01): 101.299 and 101.948 and 102.597
- cell viability, Figures S9A, B, D-F ([4]; concentration 0.03): 100.98 and 101.961 and 102.614
- cell viability, Figures S9A, B, D-F ([4]; concentration 0.1): 100.429 and 99.7854 and 102.039
- cell viability, Figures S9A, B, D-F ([4]; concentration 0.3): 100.553 and 101.217
- cell viability, Figures S9A, B, D-F ([4]; concentration 1): 103.053 and 102.399 and 103.381
- cell viability, Figures S9A, B, D-F ([4]; concentration 3): 103.176 and 101.862 and 103.834
- cell viability, Figures S9A, B, D-F ([4]; concentration 10): 96.1957 and 98.8043
- cell viability, Figures S9A, B, D-F ([4]; concentration 25): 30.7973 and 30.3654 and 31.5947

Compound: CC1=NN(c2ccc(C)c(C)c2)C(=O)/C1=N\Nc1cccc(-c2cccc(C(=O)O)c2)c1O [Eltrombopag, eltrombopag]
- viability of infected cells (rescue of cytopathic effect), Figures S9G-L ([1]; concentration 10): 40.6593 and 41.7582 and 41.3919
- viability of infected cells (rescue of cytopathic effect), Figures S9G-L ([1]; concentration 30): 46.1538 and 47.2527 and 46.5201
- viability of infected cells (rescue of cytopathic effect), Figures S9G-L ([1]; concentration 100): 46.1538 and 47.619 and 44.6886
- viability of infected cells (rescue of cytopathic effect), Figures S9G-L ([1]; concentration 300): 42.4908 and 43.956 and 41.7582
- viability of infected cells (rescue of cytopathic effect), Figures S9G-L ([1]; concentration 1000): 41.3919 and 43.5897 and 40.6593
- viability of infected cells (rescue of cytopathic effect), Figures S9G-L ([1]; concentration 3000): 40.293 and 41.7582
- viability of infected cells (rescue of cytopathic effect), Figures S9G-L ([1]; concentration 10000): 45.0549 and 44.3223 and 43.5897
- viability of infected cells (rescue of cytopathic effect), Figures S9G-L ([1]; concentration 25000): 23.7729 and 23.8095 and 24.0659
- IC50 [2]: 1.52 µM
- Polarization ([3]; 0.00610352 uM): 143 and 142
- Polarization ([3]; 0.0244141 uM): 147 and 141
- Polarization ([3]; 0.0976562 uM): 143 and 140
- Polarization ([3]; 0.390625 uM): 145 and 149
- Polarization ([3]; 1.5625 uM): 107 and 109
- Polarization ([3]; 6.25 uM): 80 and 76
- Polarization ([3]; 25 uM): 89
- cell viability, Figures S9A, B, D-F ([4]; concentration 0.01): 104.545 and 104.221
- cell viability, Figures S9A, B, D-F ([4]; concentration 0.03): 100.327 and 102.614 and 102.288
- cell viability, Figures S9A, B, D-F ([4]; concentration 0.1): 99.1416 and 102.682 and 102.039
- cell viability, Figures S9A, B, D-F ([4]; concentration 0.3): 104.867 and 102.544 and 103.872
- cell viability, Figures S9A, B, D-F ([4]; concentration 1): 103.708 and 104.035
- cell viability, Figures S9A, B, D-F ([4]; concentration 3): 104.491 and 102.191 and 102.848
- cell viability, Figures S9A, B, D-F ([4]; concentration 10): 96.1957 and 94.8913 and 95.2174
- cell viability, Figures S9A, B, D-F ([4]; concentration 25): 58.804 and 63.1229 and 62.4585
